Several values for one entry are separate records, joined by “and”; a condition that tells them apart may be missing. Equal entries are not always repeated.
Key:
[1] = system: HCE (human ciliary epithelial) cell line, NPE cells; test: Cell volume (shrinkage) of NPE cells in isosmotic solution, Coulter Counter, 5 μM gramicidin; format: cell-based
Procedure, shortened: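 HCE-derived NPE cells suspended in isosmotic bicarbonate/HEPES Ringer's (pH 7.4, 298-305 mOsm), with 5 μM gramicidin D in all solutions to remove K^+ channel contribution. Volume measured by Coulter Counter as peak of distribution, normalized to first time point; shrinkage fit to monoexponential by nonlinear least squares for v∞ and τ. Vehicle-matched controls.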

human A3 receptor = target: T1, human A3 receptor (Homo sapiens, UniProt P0DMS8); test: Adenylate cyclase assay, CHO cell membranes, forskolin stimulated; format: biochemical; conditions: forskolin 1 μM
T1 sequence (P0DMS8 1-318): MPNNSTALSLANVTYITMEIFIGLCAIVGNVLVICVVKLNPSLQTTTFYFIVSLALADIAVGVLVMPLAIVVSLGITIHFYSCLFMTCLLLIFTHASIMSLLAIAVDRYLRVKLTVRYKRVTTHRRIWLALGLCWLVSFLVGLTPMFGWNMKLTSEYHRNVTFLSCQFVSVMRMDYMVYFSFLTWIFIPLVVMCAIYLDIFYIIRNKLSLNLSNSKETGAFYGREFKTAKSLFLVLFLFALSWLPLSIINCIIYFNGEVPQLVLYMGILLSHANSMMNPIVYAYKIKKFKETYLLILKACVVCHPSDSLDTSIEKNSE

[2] = 30 nM IB-MECA, 5 μM gramicidin, FIG. 2A
[3] = FIG. 2D, 100 nM Cl-IB-MECA, IB-MECA in parallel

- Maximal inhibition of adenylate cyclase (human A3 receptor): ~60 % of total stimulation
Compound: CNC(=O)[C@H]1O[C@@H](n2cnc3c(NCc4cccc(I)c4)ncnc32)[C@H](O)[C@@H]1O [IB-MECA, N^6-(3-iodobenzyl)-adenosine-5′-N-methyluronamide]
- steady-state cell volume (V∞) [1, 2]: 98.5±0.1%
- time constant of the shrinkage (τ) [1, 2]: 3.5 ± 1.5 min
- effect of adenosine-receptor agonist on isoosmotic volume ([1]; 100 nM agonist): produced shrinkage
- steady-state cell volume (V∞) ([1]; 100 nM, FIG. 5A): 95.6±0.2%
- time constant of the shrinkage (τ) ([1]; 100 nM, FIG. 5A): 4.5 ± 0.6 min
- steady-state cell volume (V∞) ([1]; 1 μM IB-MECA, FIG. 2A): 95.9±0.3%
- time constant of the shrinkage (τ) ([1]; 1 μM IB-MECA, FIG. 2A): 2.4 ± 0.7 min
- steady-state cell volume (V∞) ([1]; 1 μM IB-MECA, FIG. 2B): 97.5±0.1%
- time constant of the shrinkage (τ) ([1]; 1 μM IB-MECA, FIG. 2B): 7.2 ± 1.0 min
- steady-state cell volume (V∞) ([1]; 3 μM IB-MECA, FIG. 2B): 96.7±0.3%
- time constant of the shrinkage (τ) ([1]; 3 μM IB-MECA, FIG. 2B): 10.0 ± 2.3 min
- steady-state cell volume (V∞) ([1]; 10 μM IB-MECA, FIG. 2B): 97.9±0.2%
- time constant of the shrinkage (τ) ([1]; 10 μM IB-MECA, FIG. 2B): 3.2 ± 1.1 min
- steady-state cell volume (V∞) [1, 3]: 96.8±0.4%
- time constant of the shrinkage (τ) [1, 3]: 6.3 ± 2.2 min
- Kd ([1]; Lineweaver-Burk plot of monoexponential fits, FIG. 2C, read-out: apparent Kd for the IB-MECA-induced shrinkage): 55 nM and ~55 nM

Source: patent publication US6528516B1, “Methods for reducing intraocular pressure using A3 adenosine receptor antagonists” (Trustees of the University of Pennsylvania, The Center for …, priority 1998, dated 2003)
